Assay [1] deals with human (hACC2) ACC2 (Homo sapiens, UniProt O00763). Nature of the assay: In vitro Acetyl-CoA Carboxylase (ACC) inhibition assay (ADP-Glo), hACC2. In kind it is biochemical. Here is the method: The detailed procedure is as follows. […] 10 μL ADP glo reagent was added. […] 20 μL kinase detection reagent was added.
“NA” stands for “not assayed.”
Background: ADP-Glo turns the ADP formed in a reaction into a luminescent signal.

Assay [2] deals with C. albicans ATCC 90028. Briefly: Anti-Fungal (Candida) Activity Assay, broth microtiter MIC. In kind it is cell-based. The following applies: ATCC90028, 3 replicates, MIC recorded at 48 h, read-out: MIC C. albicans ATCC 90028. Here is the method: (§1) Compounds of the present invention were evaluated in an Anti-Fungal Activity Assay. An exemplary procedure for the assay, which measures the susceptibility of various Candida species to anti-fungal compounds, follows. Compounds to be tested (including fluconazole and amphotericin B) were dissolved in DMSO to obtain a solution having a concentration of 1 mg/mL. […] All species were grown from frozen stock by directly plating on to freshly prepared Sabouraud Dextrose agar (BD, Difco) and incubated overnight in ambient air at 35° C. for 24 h. A direct suspension was prepared in RPMI 1640+MOPS (Lonza, Biowhittaker) by taking individual colonies from the overnight cultures using sterile swabs soaked in sterile saline. The concentration of the suspension was determined using pre-determined standard curves. […] Broth microtiter MIC challenge plates were prepared following CLSI guidelines (M27-A3, Vol. 28 No. 14). The original CLSI guidelines focused on reading Candida MICs after 48 h of incubation. As reading after only 24 h offers a clear advantage of patient care, QC limits are being established for all drugs at 24 h. That being said there are no known interpretive breakpoints for amphotericin B at 24 h and the current fluconazole interpretive breakpoints are based on a 48 h reading. The MIC for the test compounds were recorded at 48 h. All MIC determinations were achieved by visually comparing the growth found in the antibiotic challenged wells to that of the growth control.

In assay [3] the test system is C. krusei ATCC 6258. The description is as above. Format: cell-based. The following applies: Pichia kudriavzevii, ATCC6258; 3 replicates, MIC recorded at 48 h; read-out: MIC C. krusei ATCC 6258. Here is the method: as §1
For assay [4], the system named is C. parapsilosis ATCC 22019. The description is as above. The following applies: Lodderomyces parapsilosis, ATCC22019; 3 replicates, MIC recorded at 48 h; read-out: MIC C. parapsilosis ATCC 22019. In kind it is cell-based. The procedure:
as §1

For assay [5], the system named is Botrtyis cinerea (Bc). Briefly: Growth inhibition assay of fungal pathogens. In kind it is cell-based. The following applies: 48 h, read-out: Concentration at 90% Inhibition Bc. The procedure: (§2) Compounds of the present invention were evaluated in a growth inhibition assay to determine the ability to control the growth of fungal pathogens, such as Botrtyis cinerea (Bc), Collectotrichum graminicola (Cg). Diplodia maydis (Dm), Fusarium moniliforme (Fm), Fusarium virguliforme (Fv), Phytophthora capsici (Pc), Rhizoctonia solani (Rs), and Septoria tritici (St). Compounds to be tested were dissolved in DMSO at 2.5 mg/ml to produce compound stock solutions (“stocks”). Stocks were diluted with DMSO by a five-fold dilution in a 96-well stock plate, and two sets of final concentrations of 50, 10, and 2 ppm or 2, 0.4, and 0.08 ppm were obtained in vitro. A set of positive controls was also prepared, with various concentrations of Soraphen (2, 0.4, and 0.08 ppm), Metalaxyl (1.1, 0.22, and 0.04 ppm), and Metconazole (2, 0.4, and 0.08 ppm or 0.2, 0.04, and 0.008 ppm) after the five-fold dilutions. Negative controls on each plate included 2% DMSO, water, and a blank (media+2% DMSO). Fungal spores were isolated from previously sub-cultured plates of Botrtyis cinerea (Bc). Collectotrichum graminicola (Cg). Diplodia maydis (Dm), Fusarium moniliforme (Fm), Fusarium virguliforme (Fv), Phytophthora capsici (Pc), and Septoria tritici (St). The isolated spores were diluted to individual concentrations with a 17% V8 liquid media. For Rhizoctonia solani (Rs) and Pythium irregulare, 1.5 mm mycelial plugs were used in place of spores and ¼ Potato Dextrose Broth (PDB) was used for dilution. The spore concentrations and plug sizes were based on growth curves generated at 48 hours for each pathogen. In a second 96-well plate, the spores or mycelial plugs, media, diluted compound solutions, and controls were combined. Once the compound was added, a true final concentration of compound in each well was measured by an OD600 reading, which adjusted for any compound precipitation that might have occurred in the well. Plate readings were repeated at both 24 and 48 hours. The blank negative control was used as a background subtraction. Additional visual ratings were performed at both 24 and 48 hours for checking on precipitation and confirming efficacy. Visual and OD600 ratings of the compounds at 48 hours were compared to the 2% DMSO negative control, and the percent of pathogen growth inhibition was determined based on those values.

Assay [6] has as its system Collectotrichum graminicola (Cg). Briefly: Growth inhibition assay of fungal pathogens. The note with it: 48 h, read-out: Concentration at 90% Inhibition Cg. In kind it is cell-based. Here is the method: as §2
In assay [7] the test system is Diplodia maydis (Dm). Briefly: Growth inhibition assay of fungal pathogens. Format: cell-based. The following applies: Stenocarpella maydis, 48 h, read-out: Concentration at 90% Inhibition Dm. Here is the method: as §2
Assay [8] relates to Fusarium moniliforme (Fm). Briefly: Growth inhibition assay of fungal pathogens. In kind it is cell-based. The following applies: Fusarium verticillioides, 48 h, 48 hours, read-out: Concentration at 90% Inhibition Fm. The procedure:
as §2

In assay [9] the test system is Fusarium virguliforme (Fv). Briefly: Growth inhibition assay of fungal pathogens. Format: cell-based. The note with it: 48 h, 48 hours, read-out: Concentration at 90% Inhibition Fv. The procedure: as §2
For assay [10], the system named is Phytophthora capsici (Pc). Nature of the assay: Growth inhibition assay of fungal pathogens. Format: cell-based. The following applies: 48 hours; for IC90: Phytophthora capsici, read-out: Concentration at 90% Inhibition Pc. Here is the method:
as §2

For assay [11], the system named is Rhizoctonia solani (Rs). Nature of the assay: Growth inhibition assay of fungal pathogens. Format: cell-based. The note with it: 48 h, read-out: Concentration at 90% Inhibition Rs. Here is the method:
as §2

In assay [12] the test system is Septoria tritici (St). Briefly: Growth inhibition assay of fungal pathogens. Format: cell-based. The note with it: 48 hours; for IC90: Zymoseptoria tritici, read-out: Concentration at 90% Inhibition St. The procedure:
as §2

Structures are written as SMILES. Converted amounts (≈) assume the structure as drawn. Like-named read-outs stand apart in the source and are kept apart here. Bounds are passed on as bounds.

We go through six compounds from patent US10941158B2, “Pyrazole ACC inhibitors and uses thereof” (Gilead Apollo, LLC, priority 2015, dated 2021).

Chain of human (hACC2) ACC2 (O00763 whole entry): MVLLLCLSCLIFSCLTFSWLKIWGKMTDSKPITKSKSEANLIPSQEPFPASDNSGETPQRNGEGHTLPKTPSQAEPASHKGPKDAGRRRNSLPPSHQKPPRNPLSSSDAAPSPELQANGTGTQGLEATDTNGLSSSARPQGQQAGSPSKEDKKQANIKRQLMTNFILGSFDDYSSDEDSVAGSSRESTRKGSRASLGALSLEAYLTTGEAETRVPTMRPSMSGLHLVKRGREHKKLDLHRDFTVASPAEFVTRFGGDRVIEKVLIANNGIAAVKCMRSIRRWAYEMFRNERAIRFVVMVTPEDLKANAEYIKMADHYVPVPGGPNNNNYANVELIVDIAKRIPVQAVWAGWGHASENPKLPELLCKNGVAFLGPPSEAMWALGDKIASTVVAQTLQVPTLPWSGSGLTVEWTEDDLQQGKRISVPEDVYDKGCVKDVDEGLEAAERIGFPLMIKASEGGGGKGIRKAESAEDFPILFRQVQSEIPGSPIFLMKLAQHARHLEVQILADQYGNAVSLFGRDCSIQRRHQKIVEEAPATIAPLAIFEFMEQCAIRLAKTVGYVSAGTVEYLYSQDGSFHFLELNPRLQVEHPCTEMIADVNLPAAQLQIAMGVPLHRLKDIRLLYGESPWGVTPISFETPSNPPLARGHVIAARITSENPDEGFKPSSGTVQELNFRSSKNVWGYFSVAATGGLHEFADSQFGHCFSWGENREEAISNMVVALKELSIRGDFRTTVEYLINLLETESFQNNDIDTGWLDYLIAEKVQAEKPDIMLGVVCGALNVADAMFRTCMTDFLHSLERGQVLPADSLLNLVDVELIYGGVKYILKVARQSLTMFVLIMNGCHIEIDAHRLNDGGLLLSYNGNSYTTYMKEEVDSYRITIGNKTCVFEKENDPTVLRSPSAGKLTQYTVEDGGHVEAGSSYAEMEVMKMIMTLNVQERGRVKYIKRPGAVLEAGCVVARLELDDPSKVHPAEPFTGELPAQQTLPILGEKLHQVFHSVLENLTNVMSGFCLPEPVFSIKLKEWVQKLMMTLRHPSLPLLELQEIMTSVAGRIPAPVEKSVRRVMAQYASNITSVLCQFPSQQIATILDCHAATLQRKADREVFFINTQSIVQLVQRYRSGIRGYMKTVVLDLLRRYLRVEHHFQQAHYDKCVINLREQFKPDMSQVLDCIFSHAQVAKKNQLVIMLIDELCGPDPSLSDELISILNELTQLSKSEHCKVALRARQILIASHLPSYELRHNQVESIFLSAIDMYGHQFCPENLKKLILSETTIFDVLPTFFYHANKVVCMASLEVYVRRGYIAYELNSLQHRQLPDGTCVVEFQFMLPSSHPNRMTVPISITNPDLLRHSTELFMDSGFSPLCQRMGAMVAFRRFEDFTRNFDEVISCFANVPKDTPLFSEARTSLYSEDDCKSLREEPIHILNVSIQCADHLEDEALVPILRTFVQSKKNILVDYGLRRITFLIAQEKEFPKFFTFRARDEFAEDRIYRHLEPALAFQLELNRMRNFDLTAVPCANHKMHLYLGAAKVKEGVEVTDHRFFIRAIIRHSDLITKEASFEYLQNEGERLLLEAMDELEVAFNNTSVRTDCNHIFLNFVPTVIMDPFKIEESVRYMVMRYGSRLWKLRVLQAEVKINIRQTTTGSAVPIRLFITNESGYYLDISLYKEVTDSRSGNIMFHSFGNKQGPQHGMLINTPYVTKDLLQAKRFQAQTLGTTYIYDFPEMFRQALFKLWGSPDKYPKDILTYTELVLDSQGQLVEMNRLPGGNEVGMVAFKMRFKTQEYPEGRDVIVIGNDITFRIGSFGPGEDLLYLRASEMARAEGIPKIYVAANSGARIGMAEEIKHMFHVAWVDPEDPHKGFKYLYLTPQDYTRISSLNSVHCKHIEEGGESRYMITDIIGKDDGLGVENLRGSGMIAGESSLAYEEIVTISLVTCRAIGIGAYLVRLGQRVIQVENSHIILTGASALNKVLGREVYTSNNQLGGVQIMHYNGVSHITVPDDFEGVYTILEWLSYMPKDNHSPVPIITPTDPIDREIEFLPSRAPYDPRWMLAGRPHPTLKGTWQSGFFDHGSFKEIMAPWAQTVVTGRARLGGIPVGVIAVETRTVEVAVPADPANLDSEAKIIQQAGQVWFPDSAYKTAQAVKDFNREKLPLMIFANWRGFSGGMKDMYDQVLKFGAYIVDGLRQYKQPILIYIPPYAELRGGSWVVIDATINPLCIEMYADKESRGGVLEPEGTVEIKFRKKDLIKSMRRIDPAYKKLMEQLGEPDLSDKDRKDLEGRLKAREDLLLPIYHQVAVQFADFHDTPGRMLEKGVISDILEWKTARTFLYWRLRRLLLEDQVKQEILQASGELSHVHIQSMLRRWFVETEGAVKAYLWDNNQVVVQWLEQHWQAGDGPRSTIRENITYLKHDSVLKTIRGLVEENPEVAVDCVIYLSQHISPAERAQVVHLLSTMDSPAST

Turning to `COc1ccc(F)cc1[C@H](Cn1c(=O)n(C(C)(C)C(=O)N2CCCC2)c(=O)c2c(C)c(-n3cccn3)sc21)OC1CCC(=O)CC1` [Compound I-27, (R)-1-(2-(5-fluoro-2-methoxyphenyl)-2-((4-oxocyclohexyl)oxy)ethyl)-5-methyl-3-(2-methyl-1-oxo-1-(pyrrolidin-1-yl)propan-2-yl)-6-(1H-pyrazol-1-yl)thieno[2,3-d]pyrimidine-2,4(1H,3H)-dione], in assay [1], the IC50 (as a rule, the midpoint of a concentration-inhibition curve) is 10 to 40 nM. For the same compound, the minimal inhibitory concentration (MIC) in assay [2], in [3] and in assay [4] was 1.1 to 2 µg/mL (≈ 1.69 to 3.07 µM) throughout. Also, the IC90 was 2 µg/mL (≈ 3.07 µM) in assay [5] (Table 4a); 2 µg/mL (≈ 3.07 µM) in [5] (Table 4b); 10 µg/mL (≈ 15.3 µM) in assay [6] (Table 4a); 2 µg/mL (≈ 3.07 µM) in assay [6] (Table 4b); more than 50 µg/mL in assay [7] (Table 4a); 10 µg/mL (≈ 15.3 µM) in [7] (Table 4b). The IC90 is 0.4 µg/mL (≈ 0.614 µM) in assay [8] (Table 4a); 0.4 µg/mL (≈ 0.614 µM) in [8] (Table 4b); 10 µg/mL (≈ 15.3 µM) in assay [9] (Table 4a); 2 µg/mL (≈ 3.07 µM) in assay [9] (Table 4b); more than 50 µg/mL in assay [10] (Table 4a); 2 µg/mL (≈ 3.07 µM) in assay [11] (Table 4a). The IC90 in assay [11] (Table 4b) was 2 µg/mL (≈ 3.07 µM); in assay [12] (Table 4a), more than 50 µg/mL. For the same compound, the “Concentration at 90% Inhibition Pc” value in [10] (Table 4b) is reported as “D (“D” provided a compound concentration of >50 ppm at 90% inhibition of fungal pathogens)”. In assay [12] (Table 4b), the “Concentration at 90% Inhibition St” value is “D (“D” provided a compound concentration of >50 ppm at 90% inhibition of fungal pathogens)”.
Take `COc1ccc(F)cc1[C@H](Cn1c(=O)n(C(C)(C)C(=O)NC(C)C)c(=O)c2c(C)c(-n3cccn3)sc21)O[C@H]1CC[C@@H](O)CC1` [Compound I-14, 2-(1-((R)-2-(5-fluoro-2-methoxyphenyl)-2-(((1s,4S)-4-hydroxycyclohexyl)oxy)ethyl)-5-methyl-2,4-dioxo-6-(1H-pyrazol-1-yl)-1,4-dihydro-thieno[2,3-d]pyrimidin-3(2H)-yl)-N-isopropyl-2-methylpropanamide]: the IC50 in assay [1] was in the range of 3 to 10 nM. Besides, the MIC (commonly the lowest concentration found to suppress growth) was 0.25 to 1 µg/mL (≈ 0.39 to 1.56 µM) in assay [2], 1.1 to 2 µg/mL (≈ 1.71 to 3.12 µM) in assay [3] and 0.25 to 1 µg/mL (≈ 0.39 to 1.56 µM) in assay [4]. The IC90 in assay [5] (Table 4a) is 0.4 µg/mL (≈ 0.623 µM); in assay [5] (Table 4b) it was 0.4 µg/mL (≈ 0.623 µM); in assay [6] (Table 4a), more than 50 µg/mL; in assay [6] (Table 4b) it was more than 50 µg/mL; in [7] (Table 4a) it was 2 µg/mL (≈ 3.12 µM); in assay [7] (Table 4b), 2 µg/mL (≈ 3.12 µM). Moreover, the IC90 was 0.08 µg/mL (≈ 0.125 µM) in [8] (Table 4a); 0.08 µg/mL (≈ 0.125 µM) in assay [8] (Table 4b); 2 µg/mL (≈ 3.12 µM) in assay [9] (Table 4a); 2 µg/mL (≈ 3.12 µM) in [9] (Table 4b); more than 50 µg/mL in [10] (Table 4a); 2 µg/mL (≈ 3.12 µM) in [11] (Table 4a). Besides, the IC90 in [11] (Table 4b) is 2 µg/mL (≈ 3.12 µM); in [12] (Table 4a), more than 50 µg/mL. In [10] (Table 4b), the “Concentration at 90% Inhibition Pc” value is recorded as “D (“D” provided a compound concentration of >50 ppm at 90% inhibition of fungal pathogens)”. Also, the “Concentration at 90% Inhibition St” value in assay [12] (Table 4b) is reported as “D (“D” provided a compound concentration of >50 ppm at 90% inhibition of fungal pathogens)”.
Take `COc1ccccc1[C@H](Cn1c(=O)n(C(C)(C)C(N)=O)c(=O)c2c(C)c(-n3cccn3)sc21)OCC(C)C` [Compound I-20, (R)-2-(1-(2-isobutoxy-2-(2-methoxyphenyl)ethyl)-5-methyl-2,4-dioxo-6-(1H-pyrazol-1-yl)-1,4-dihydrothieno[2,3-d]pyrimidin-3(2H)-yl)-2-methylpropanamide]: the half-inhibitory concentration (IC50) in assay [1] lay within 3 to 10 nM. For the same compound, the IC90 in [5] (Table 4b) is 10 µg/mL (≈ 18.5 µM); in assay [6] (Table 4b), more than 50 µg/mL; in assay [7] (Table 4b), 10 µg/mL (≈ 18.5 µM); in assay [8] (Table 4b), 10 µg/mL (≈ 18.5 µM); in [9] (Table 4b), more than 50 µg/mL; in [10] (Table 4b), more than 50 µg/mL. Besides, the IC90 in [11] (Table 4b) and in [12] (Table 4b) was more than 50 µg/mL in each case.
The compound `COc1ccc(F)cc1[C@H](Cn1c(=O)n(C(C)(C)C(=O)N2CC(O)C2)c(=O)c2c(C)c(-n3cccn3)sc21)OC1CCOCC1` [Compound I-9, (R)-1-(2-(5-fluoro-2-methoxyphenyl)-2-((tetrahydro-2H-pyran-4-yl)oxy)ethyl)-3-(1-(3-hydroxyazetidin-1-yl)-2-methyl-1-oxopropan-2-yl)-5-methyl-6-(1H-pyrazol-1-yl)thieno[2,3-d]pyrimidine-2,4(1H,3H)-dione] displayed an IC50 in assay [1] of 10 to 40 nM. Also, the IC90 in assay [5] (Table 4b), in assay [6] (Table 4b), in assay [7] (Table 4b), in [8] (Table 4b), in assay [9] (Table 4b) and in assay [10] (Table 4b) was more than 50 µg/mL in each case. Further, the IC90 in [11] (Table 4b) and in assay [12] (Table 4b) was more than 50 µg/mL in each case.
In the case of `COc1ccccc1[C@H](Cn1c(=O)n(C(C)(C)C(N)=O)c(=O)c2c(C)c(-n3cccn3)sc21)OC1CCOCC1` [Compound I-10, (R)-2-(1-(2-(2-methoxyphenyl)-2-((tetrahydro-2H-pyran-4-yl)oxy)ethyl)-5-methyl-2,4-dioxo-6-(1H-pyrazol-1-yl)-1,4-dihydrothieno[2,3-d]pyrimidin-3(2H)-yl)-2-methylpropanamide], the IC50 in [1] was in the range of 3 to 10 nM. The IC90 in assay [5] (Table 4b) is more than 50 µg/mL; in assay [6] (Table 4b) it was more than 50 µg/mL; in [7] (Table 4b), more than 50 µg/mL; in assay [8] (Table 4b), 10 µg/mL (≈ 17.6 µM); in assay [9] (Table 4b), more than 50 µg/mL; in assay [10] (Table 4b) it was more than 50 µg/mL. Further, the IC90 in [11] (Table 4b) and in assay [12] (Table 4b) was more than 50 µg/mL each time.
With `COc1ccccc1[C@H](Cn1c(=O)n(C(C)(C)C(N)=O)c(=O)c2c(C)c(-n3cccn3)sc21)OC(C)C` [Compound I-16, (R)-2-(1-(2-isopropoxy-2-(2-methoxyphenyl)ethyl)-5-methyl-2,4-dioxo-6-(1H-pyrazol-1-yl)-1,4-dihydrothieno[2,3-d]pyrimidin-3(2H)-yl)-2-methylpropanamide], the concentration for half-maximal inhibition (IC50) in assay [1] lay in the range of 10 to 40 nM. Moreover, the IC90 in assay [5] (Table 4b), in assay [6] (Table 4b), in [7] (Table 4b), in assay [8] (Table 4b), in assay [9] (Table 4b) and in assay [10] (Table 4b) was more than 50 µg/mL throughout. For the same compound, the IC90 in [11] (Table 4b) was 10 µg/mL (≈ 19 µM); in assay [12] (Table 4b), more than 50 µg/mL.
